From patent US6037354A, “Alpha 1a adrenergic receptor antagonists” (Merck & Co., Inc., priority 1998, dated 2000)
Where a name gives a salt, the structure may show the parent alone.

How the values were obtained:
[1] = system: human alpha 1b and alpha 1d adrenergic receptors; assay: Selective Binding assays ([125I]-HEAT competition, membranes of stably transfected human alpha 1d and alpha 1b cell lines), compared with alpha 1a; conditions: alpha 1a versus alpha 1b and alpha 1d
Description: Selective Binding assays Membranes prepared from stably transfected human alpha 1d and alpha 1b cell lines (ATCC CRL 11138 and CRL 11139, respectively) were used to identify compounds that selectively bind to the human alpha 1a adrenergic receptor. These competition binding reactions (total volume=200 μl) contained 50 mM Tris-HCl pH. 7.4, 5 mM EDTA, 150 mM NaCl, 100 pM [^125 I]-HEAT, membranes prepared from cell lines transfected with the respective alpha 1 subtype expression plasmid and increasing amounts of unlabeled ligand. Reactions were incubated at room temperature for one hour with shaking. Reactions were filtered onto Whatman GF/C glass fiber filters with a Inotec 96 well cell harvester. Filters were washed three times with ice cold buffer and bound radioactivity was determined (Ki).

[2] = target: T1, human alpha 1a adrenergic receptor (Homo sapiens, UniProt P35348); assay: Alpha 1a Adrenergic Receptor Binding screening assay ([125I]-HEAT competition, membranes of stably transfected human alpha 1a cell line); conditions: human alpha 1a receptor, 100 pM [125I]-HEAT, room temperature, one hour
T1 sequence (P35348 1-466): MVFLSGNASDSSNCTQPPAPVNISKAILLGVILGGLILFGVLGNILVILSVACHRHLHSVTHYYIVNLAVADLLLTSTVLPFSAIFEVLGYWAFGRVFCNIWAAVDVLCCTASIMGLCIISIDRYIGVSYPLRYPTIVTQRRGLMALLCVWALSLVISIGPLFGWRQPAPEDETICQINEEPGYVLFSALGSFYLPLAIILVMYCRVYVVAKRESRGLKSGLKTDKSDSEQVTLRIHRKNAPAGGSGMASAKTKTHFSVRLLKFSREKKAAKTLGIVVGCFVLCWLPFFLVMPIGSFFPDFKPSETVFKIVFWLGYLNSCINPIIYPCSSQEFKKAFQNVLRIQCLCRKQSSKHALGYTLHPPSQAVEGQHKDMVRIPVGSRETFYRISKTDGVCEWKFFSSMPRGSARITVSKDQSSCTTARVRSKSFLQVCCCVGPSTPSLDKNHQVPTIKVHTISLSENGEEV
Description: Screening assay: Alpha 1a Adrenergic Receptor Binding
Membranes prepared from the stably transfected human alpha 1a cell line (ATCC CRL 11140) were used to identify compounds that bind to the human alpha 1a adrenergic receptor. These competition binding reactions (total volume=200 μl) contained 50 mM Tris-HCl pH. 7.4, 5 mM EDTA, 150 mM NaCl, 100 pM [^125 I]-HEAT, membranes prepared from the alpha 1a cell line and increasing amounts of unlabeled ligand. Reactions were incubated at room temperature for one hour with shaking. Reactions were filtered onto Whatman GF/C glass fiber filters with a Inotec 96 well cell harvester. Filters were washed three times with ice cold buffer and bound radioactivity was determined (Ki).

Row | Structure (SMILES) | selectivity in binding to alpha 1a receptors versus binding to the alpha 1b and alpha 1d receptors [1] | alpha 1a Ki [2] | Ki [2] [nM]
1 | NC(=O)[C@@H]1OC(=O)N(C(=O)N[C@@H]2CCN([C@H]3CC[C@H](c4ccccc4F)CC3)C2)[C@H]1c1ccc(F)c(F)c1 [Example 78, (4S,5R)-trans-4-(3,4-Difluorophenyl)-3-{1-[4-(2-fluorophenyl)cyclohexyl]-(3R)-pyrrolidin-3-ylcarbamoyl}-2-oxo-oxazolidine-5-carboxamide] | about 37 fold |  | 
2 | O=C(N[C@@H]1CCN(C2CCC(O)(c3ccccn3)CC2)C1)N1C(=O)OC[C@@H]1c1ccc(F)c(F)c1 (stereo partly drawn) [Example 20, (4S)-trans-4-(3,4-Difluorophenyl)-2-oxooxazolidine-3-carboxylic acid-[1-(4-hydroxy-4-pyridin-2-yl-cyclohexyl)-(3R)-pyrrolidin-3-yl]amide hydrochloride] |  | inactive | 
3 | Cl.O=C(N[C@@H]1CCN([C@H]2CC[C@@H](c3ccccn3)CC2)C1)N1C(=O)OC[C@@H]1c1ccc(F)c(F)c1 [Example 12, (4S)-cis-4-(3,4-Difluorophenyl)-2-oxooxazolidine-3-carboxylic acid-[1-(4-pyridin-2-yl-cyclohexyl)-(3R)-pyrrolidin-3-yl]amide hydrochloride] | at least 3 fold |  | < 200
4 | COc1ccccc1[C@H]1CC[C@@H](N2CC[C@@H](NC(=O)N3C(=O)OC[C@@H]3c3ccc(F)c(F)c3)C2)CC1 [Example 16, (4S)-cis-4-(3,4-Difluorophenyl)-2-oxooxazolidine-3-carboxylic acid-{1-[4-(2-methoxyphenyl)-cyclohexyl]-(3R)-pyrrolidin-3-yl}amide hydrochloride] |  |  | ~800
